Experimental data from patent US7358235B2, “Analogs of nitrobenzylthioinosine” (Gruenenthal GmbH, priority 2002, dated 2008).
Entries after “also recorded” stand apart in the source; their conditions may differ. Where two headings read alike, the source gives them in different places. Marks after values point to notes of the source that are not given here.

Assays:
[1] = biological target: T1, nucleoside transport protein (Homo sapiens, UniProt Q99808); experiment: [3H]NBTI radioligand binding assay on human erythrocyte membranes; details: for affinity / activity in words: comparison within the series, [3H]NBTI binding
T1 construct: tissue Blood Bank, Leiden University Medical Center; host or cells: human erythrocyte membranes (ghosts) from whole human blood
T1 sequence (Q99808 1-456): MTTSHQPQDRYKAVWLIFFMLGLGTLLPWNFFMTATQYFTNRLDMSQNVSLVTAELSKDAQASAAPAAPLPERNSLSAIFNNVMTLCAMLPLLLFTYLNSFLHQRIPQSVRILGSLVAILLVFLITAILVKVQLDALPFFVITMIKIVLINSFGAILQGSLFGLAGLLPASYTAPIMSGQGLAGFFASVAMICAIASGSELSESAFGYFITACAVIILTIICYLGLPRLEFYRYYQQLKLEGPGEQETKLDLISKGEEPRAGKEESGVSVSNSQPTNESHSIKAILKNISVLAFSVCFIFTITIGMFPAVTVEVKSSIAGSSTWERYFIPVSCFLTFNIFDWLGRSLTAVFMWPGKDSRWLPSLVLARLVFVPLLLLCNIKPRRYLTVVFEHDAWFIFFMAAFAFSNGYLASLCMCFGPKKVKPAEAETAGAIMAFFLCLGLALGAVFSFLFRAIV
Protocol: All final products were tested in a radioligand binding assay.
Erythrocytes and membrane preparation. Whole human blood (Blood Bank, Leiden University Medical Center) was stirred in lysis buffer (½ v/v, 10 mM MgCl2 in 10 mM Tris HCl, pH 8.0 at 25° C.) for 1 h. After homogenization it was centrifuged for 50 min at 19,000 rpm. The supernatant was removed and the pellet was dissolved in ice-cold water and centrifuged again for 50 min. This procedure was repeated two more times. After removal of the last supernatant 25 mL of buffer (50 mM Tris HCl, pH 7.4 at 25° C.) was added to the final pink pellet. This suspension was homogenized and the ghosts were collected. Aliquots were stored at −80° C. until further use.
Saturation and displacement equilibrium NBTI binding to membranes prepared from human erythrocytes (ghosts) was determined at 25° C. based on a method previously described.

[2] = human erythrocyte membranes, [3H]NBTI 1.5 nM, 30 minutes at 25° C., Tris.HCl pH 7.4, read-out: Binding (Nucleoside Transporter (Ki))
[3] = inhibition of equilibrium binding of [3H]NBTI, Table 1, read-out: Ki(nM), affinity for the nucleoside transport protein on human erythrocyte membranes

Row | affinity / activity in words [1] | Ki [1, 2] [nM] | Ki [1, 3] [nM] | SMILES | further results
1 |  | 130 |  | O=[N+]([O-])c1ccc(CSc2ncnc3c2ncn3CCCO)cc1 [Example 25, 3-[6-(4-Nitro-benzylsulfanyl)-purin-9-yl]-propan-1-ol] | 
2 |  | 682 | 682 | CCCCn1cnc2c(SCc3ccc4nsc(Br)c4c3)ncnc21 [Example 22, 6-(3-Bromo-benzo[c]isothiazol-5-ylmethylsulfanyl)-9-butyl-9H-purine] | 
3 |  | 238 | 238 | CCCCn1cnc2c(SCc3ccc([N+](=O)[O-])cc3)ncnc21 [Example 19, 9-Butyl-6-(4-nitro-benzylsulfanyl)-9H-purine] | 
4 |  |  | 9.7 | OCC1OC(n2cnc3c(SCc4cccc5nonc45)ncnc32)C(O)C1O (stereo not drawn) [Example 4] | 
5 |  | 5600 | 5600 | CCCCn1cnc2c(SCc3cccc4nonc34)ncnc21 [Example 20, 6-(Benzo[1,2,5]oxadiazol-4-ylmethylsulfanyl)-9-butyl-9H-purine] | 
6 |  |  | 666 | OCC1OC(n2cnc3c(SCc4cccc5conc45)ncnc32)C(O)C1O (stereo not drawn) [Example 7, 2-[6-(Benzo[c]isoxazol-7-ylmethylsulfanyl)-purin-9-yl]-5-hydroxy methyl-tetrahydro-furan-3,4-diol] | 
7 |  | 3100 | 3100 | CCCCn1cnc2c(SCc3ccc4nscc4c3)ncnc21 [Example 21, 6-(Benzo[c]isothiazol-5-ylmethylsulfanyl)-9-butyl-9H-purine] | 
8 |  | 1140 | 1140 | O=[N+]([O-])c1ccc(CSc2ncnc3c2ncn3CCCCO)cc1 [Example 17, 4-[6-(4-Nitro-benzylsulfanyl)-purin-9-yl]-butan-1-ol] | 
9 |  |  | 25 | OC[C@H]1O[C@@H](n2cnc3c(SCc4cc(Cl)cc5nonc45)ncnc32)[C@H](O)[C@@H]1O [Compound 16] | 

The next lines start with the compound.

Row | SMILES | affinity / activity in words [1] | Ki [1, 2] [nM] | Ki [1, 3] [nM] | further results
10 | OCC1OC(n2cnc3c(SCc4cccc5nc[nH]c45)ncnc32)C(O)C1O (stereo not drawn) [Example 38] | negative effect on affinity; also recorded: reduced affinity when compared to their counterparts |  |  | 
11 | OCC1OC(n2cnc3c(SCc4ccc5nsc(Br)c5c4)ncnc32)C(O)C1O (stereo not drawn) [Example 31] |  |  |  | affinity gain ([1]; bromination of 28 to yield 31): 2.6 fold; Ki ([1]; human erythrocyte membranes, [3H]NBTI, read-out: Ki): 42 nM
12 | O=[N+]([O-])c1ccc(CSc2ncnc3c2ncn3C2CCCO2)cc1 (stereo not drawn) [Example 14, 6-(4-Nitro-benzylsulfanyl)-9-(tetrahydro-furan-2-yl)-9H-purine] |  | 937 | 937 | 
13 | O=[N+]([O-])c1ccc(CSc2ncnc3c2ncn3C2CCCCO2)cc1 (stereo not drawn) [Example 15, 6-(4-Nitro-benzylsulfanyl)-9-(tetrahydro-pyran-2-yl)-9H-purine] |  | 1200 | 1200 | 
14 | OCC1OC(n2cnc3c(SCc4ccc5nonc5c4)ncnc32)C(O)C1O (stereo not drawn) [Example 3, 2-[6-(Benzo[1,2,5]oxadiazol-5-ylmethylsulfanyl)-purin-9-yl]-5-hydroxymethyl-tetrahydro-furan-3,4-diol] |  |  | 1.5 | 
15 | O=[N+]([O-])c1ccc(CSc2ncnc3c2ncn3C2CCCO2)cc1 (stereo not drawn) [Example 43] | decrease in activity compared to compound 53 |  |  | 
16 | OCC1OC(n2cnc3c(SCc4ccc5nsc(Br)c5c4)ncnc32)C(O)C1O (stereo not drawn) [Example 10, 2-[6-(3-Bromo-benzo[c]isothiazol-5-ylmethylsulfanyl)-purin-9-yl]-5-hydroxymethyl-tetra hydro-furan-3,4-diol] |  | 42 |  | 
17 | OCC1OC(n2cnc3c(SCc4ccccc4)cc(Cl)nc32)C(O)C1O (stereo not drawn) [Example 23, 2-(7-Benzylsulfanyl-5-chloro-imidazo[4,5-b]pyridin-3-yl)-5-hydroxymethyl-tetrahydro-furan-3,4-diol] | decrease in affinity | 670 | 670 | 
18 | OCC1OC(n2cnc3c(SCc4ccc5nc[nH]c5c4)ncnc32)C(O)C1O (stereo not drawn) [Example 37] | negative effect on affinity |  |  | 
19 | OCC1OC(n2cnc3c(SCCc4ccccc4)ncnc32)C(O)C1O (stereo not drawn) [Example 27, 2-Hydroxymethyl-5-(6-phenethylsulfanyl-purin-9-yl)-tetrahydro-furan-3,4-diol] |  | 12 |  | 
20 | O=[N+]([O-])c1ccc(CSc2ncnc3c2ncn3C2CCCCO2)cc1 (stereo not drawn) [Example 44] | decrease in activity compared to compound 53 |  |  | 
21 | O=[N+]([O-])c1ccc(CSc2ncnc3c2ncn3CCCCOC2CCCCO2)cc1 (stereo not drawn) [Example 16, 6-(4-Nitro-benzylsulfanyl)-9-[4-(tetrahydro-pyran-2-yloxy)-butyl]-9H-purine] | did not improve the binding affinity | 488 | 488 | 
22 | O=[N+]([O-])c1ccc(CSc2ncnc3c2ncn3C2CCCC2)cc1 [Example 48] | decrease in activity compared to a simple n-butyl substituent |  |  | 
23 | O=[N+]([O-])c1ccc(CSc2ncnc3c2ncn3CCCCOC2CCCCO2)cc1 (stereo not drawn) [Example 46] | higher affinity |  |  | 
24 | O=[N+]([O-])c1ccc(CSc2cc(Cl)nc3c2ncn3C2OC(CO)C(O)C2O)cc1 (stereo not drawn) [Example 24, 2-[5-Chloro-7-(4-nitro-benzylsulfanyl)-imidazo[4,5-b]pyridin-3-yl]-5-hydroxymethyl-tetrahydro-furan-3,4-diol] | decrease in affinity | 47 | 47 | increase of affinity relative to 60 ([1]; introduction of a nitro group): approx. tenfold
25 | OCC1OC(n2cnc3c(SCc4cccc5nc[nH]c45)ncnc32)C(O)C1O (stereo not drawn) [Example 12, 2-[6-(3H-Benzoimidazol-4-ylmethylsulfanyl)-purin-9-yl]-5-hydroxymethyl-tetrahydro-furan-3,4-diol] |  |  |  | Percentage of displacement at concentration of 10 μM ([1]; 10 μM, [3H]NBTI, human erythrocyte membranes): 42%*; Binding (Nucleoside Transporter), percentage at 10 μM ([1]; 10 μM, human erythrocyte membranes, [3H]NBTI): 42%
26 | O=[N+]([O-])c1ccc(CSc2ncnc3c2ncn3C2CCCC2)cc1 [Example 18, 9-Cyclopentyl-6-(4-nitro-benzylsulfanyl)-9H-purine] |  | 736 | 736 | 
27 | OCC1OC(n2cnc3c(SCc4ccc5nc[nH]c5c4)ncnc32)C(O)C1O (stereo not drawn) [Example 11, 2-[6-(3H-Benzoimidazol-5-ylmethylsulfanyl)-purin-9-yl]-5-hydroxymethyl-tetra hydro-furan-3,4-diol] |  | 191 | 191 | 
28 | O=[N+]([O-])c1ccc(CSc2ncnc3c2ncn3Cc2ccccc2)cc1 [Example 26, 9-Benzyl-6-(4-nitro-benzylsulfanyl)-9H-purine] |  | 135 |  | melting point: 139 °C
29 | OCC1OC(n2cnc3c(SCc4ccc5nsc(Br)c5c4)ncnc32)C(O)C1O (stereo not drawn) [Example 2, 2-[6-(3-Bromo-benzo[c]isothiazol-5-ylmethylsulfanyl)-purin-9-yl]-5-hydroxymethyl-tetrahydro-furan-3,4-diol] |  |  | 42 | 
